Measurements: patent publication US8524274B2, “Liposomal composition comprising an active ingredient for relaxing smooth muscle, the production of this composition and the therapeutic use thereof” (Polymun Scientific Immunbiologische Forschung GmbH, priority 2004, dated 2013)
Structures can show the parent of a compound that is named as a salt.

Columns and labels:
[1] = Solubility of the active ingredient in loading buffer systems and in water; assay type: physicochemical; conditions: for solubility in citrate buffer: citric acid (intraliposomal) and citric acid/sodium carbonate pH 7.5-8.0 (extraliposomal)
Description: NH3, which is present in a reversible equilibrium with ammonium sulphate in the intraliposomal aqueous medium, attempts to migrate out through the liposome membrane and to leave behind an H^+. Sildenafil migrates in the opposite direction into the liposome, takes up the hydrogen ion H^+, becomes more hydrophilic thereby and therefore remains in the […]. In this way, sildenafil can be efficiently loaded into liposomes. This applies in a similar manner also to the sildenafil alternatives tadalafil and vardenafil.

[2] = Active loading of DPPC/cholesterol liposomes via H+ gradient; active ingredient and lipid content by rp-HPLC; assay type: physicochemical; conditions: two-stage variant; converted from the inclusion rate
Description: External loading of liposomes with sildenafil by means of H^+ gradient. The best inclusion rates were achieved under the following conditions. The lipids (molar DPPC:cholesterol ratio=55:45; in total 13 to 15 μmol per ml of aqueous phase) were dissolved in ethanol and this solution was injected into 125 mM ammonium sulphate solution. After spontaneous vesicle formation, the remaining, external ammonium sulphate solution was replaced by a 5% glucose solution and sildenafil citrate was added. In this way, an H^+ gradient formed between the inside and outside of the lipid vesicles. pH values below 2.5 are less suitable owing to resultant hydrolysis problems, and pH values greater than 5.5 are also not preferred, owing to the increasingly flat H^+ gradient. An aqueous 125 mM ammonium sulphate solution typically has a pH in the range of about 5-5.5. After removal of sildenafil which has not been included by means of gel filtration, both the active ingredient content and the lipid content were determined by means of rp-HPLC. Liposome size and distribution were determined by means of photon correlation spectroscopy (PCS). […]

solubility in water ([1]; water) | Compound | solubility in citrate buffer [1] | active ingredient per ml of liposomal suspension [2]
dissolves very readily | CCCc1nn(C)c2c(=O)[nH]c(-c3cc(S(=O)(=O)N4CCN(C)CC4)ccc3OCC)nc12 [sildenafil citrate] | insoluble or scarcely soluble | –
– | CCCc1nn(C)c2c(=O)[nH]c(-c3cc(S(=O)(=O)N4CCN(C)CC4)ccc3OCC)nc12 [sildenafil] | only poorly soluble or not soluble at all | 1000-1500 μg of active ingredient per ml of liposomal suspension
